Source: EPA's CvTdb concentration-time database

Legend:
Rat [1] = test: concentration in liver after dosing; details: 864 h; dosed: Perfluorodecanoic acid; 10 mg/kg; oral; Female; Harlan Sprague Dawley
Rat [2] = test: concentration in plasma after dosing; details: dosed: Perfluorodecanoic acid, 2 mg/kg, iv, Male, F344
Rat [3] = test: concentration in kidney after dosing; details: 864 h; dosed: Perfluorodecanoic acid; 10 mg/kg; oral; Female; Harlan Sprague Dawley
Rat [4] = test: concentration in kidney after dosing; details: 864 h; dosed: Perfluorodecanoic acid; 10 mg/kg; oral; Male; Harlan Sprague Dawley
Rat [5] = test: concentration in kidney after dosing; details: 1848 h; dosed: Perfluorodecanoic acid; 10 mg/kg; oral; Female; Harlan Sprague Dawley
Rat [6] = test: concentration in plasma after dosing; details: dosed: dichloroacetic acid, 100 mg/kg, oral, Male, F344
Rat [7] = test: concentration in plasma after dosing; details: 20 min; dosed: dichloroacetic acid; 10 mg/kg; iv; Male; F344
Rat [8] = test: concentration in plasma after dosing; details: 12 h; dosed: Primidone; 80 mg/kg; oral; Female; Harlan Sprague-Dawley
Rat [9] = test: concentration in plasma after dosing; details: 3 h; dosed: Primidone; 80 mg/kg; oral; Female; F344
Rat [10] = test: concentration in plasma after dosing; details: dosed: Wyeth-14643, 2.0 mg/kg, oral, Male, Sprague-Dawley
Rat [11] = test: concentration in plasma after dosing; details: 2 h; dosed: Wyeth-14643; 1.0 mg/kg; oral; Male; Sprague-Dawley
Rat [12] = test: concentration in plasma after dosing; details: 1 h; dosed: Wyeth-14643; 1.0 mg/kg; oral; Male; Sprague-Dawley
Rat [13] = test: concentration in plasma after dosing; details: dosed: Fluorotelomer alcohol 8+2, 40 mg/kg, iv, Male, F344
Rat [14] = test: concentration in plasma after dosing; details: dosed: Fluorotelomer alcohol 8+2, 12 mg/kg, iv, Male, F344
Rat [15] = test: concentration in plasma after dosing; details: dosed: Fluorotelomer alcohol 8+2, 12 mg/kg, iv, Male, F344; remark: listed apart in the source
Rat [16] = test: concentration in liver after dosing; details: 8 h; dosed: Thiodiglycolic Acid; 20 mg/kg; iv; Female; Harlan Sprague Dawley
Rat [17] = test: concentration in liver after dosing; details: 3 h; dosed: Thiodiglycolic Acid; 20 mg/kg; iv; Female; Harlan Sprague Dawley
Rat [18] = test: concentration in liver after dosing; details: 10 h; dosed: Thiodiglycolic Acid; 20 mg/kg; iv; Male; F344
Rat [19] = test: concentration in heart after dosing; details: 40 min; dosed: Thiodiglycolic Acid; 20 mg/kg; iv; Male; Harlan Sprague Dawley
Rat [20] = test: concentration in liver after dosing; details: 20 min; dosed: Thiodiglycolic Acid; 20 mg/kg; iv; Female; F344
Rat [21] = test: concentration in heart after dosing; details: 5.333 h; dosed: Thiodiglycolic Acid; 20 mg/kg; iv; Female; Harlan Sprague Dawley
Rat [22] = test: concentration in plasma after dosing; details: 10 min; dosed: Thiodiglycolic Acid; 20 mg/kg; iv; Male; F344
Rat [23] = test: concentration in plasma after dosing; details: 1 h; dosed: Thiodiglycolic Acid; 20 mg/kg; iv; Male; Harlan Sprague Dawley
Rat [24] = test: concentration in plasma after dosing; details: 20 min; dosed: Thiodiglycolic Acid; 20 mg/kg; iv; Female; Harlan Sprague Dawley
Rat [25] = test: concentration in plasma after dosing; details: 2 h; dosed: Thiodiglycolic Acid; 20 mg/kg; iv; Male; Harlan Sprague Dawley
Rat [26] = test: concentration in liver after dosing; details: 10 min; dosed: Bis 2-Chloroethoxy Methane; 20 mg/kg; iv; Male; F344
Rat [27] = test: concentration in heart after dosing; details: 5 h; dosed: Bis 2-Chloroethoxy Methane; 20 mg/kg; iv; Female; F344
Rat [28] = test: concentration in liver after dosing; details: 5 h; dosed: Bis 2-Chloroethoxy Methane; 20 mg/kg; iv; Male; F344
Rat [29] = test: concentration in thymus after dosing; details: 20 min; dosed: Bis 2-Chloroethoxy Methane; 20 mg/kg; iv; Male; F344
Rat [30] = test: concentration in plasma after dosing; details: 1 h; dosed: Bis 2-Chloroethoxy Methane; 20 mg/kg; iv; Male; F344
Rat [31] = test: concentration in plasma after dosing; details: dosed: Bis 2-Chloroethoxy Methane, 40 mg/kg, iv, Male, Harlan Sprague Dawley
Rat [32] = test: concentration in plasma after dosing; details: dosed: Bis 2-Chloroethoxy Methane, 40 mg/kg, iv, Male, Harlan Sprague Dawley; remark: listed apart in the source
Rat [33] = test: concentration in plasma after dosing; details: dosed: Bis 2-Chloroethoxy Methane, 40 mg/kg, iv, Male, Harlan Sprague Dawley; remark: listed apart in the source
Rat [34] = test: concentration in plasma after dosing; details: 40 min; dosed: Bis 2-Chloroethoxy Methane; 20 mg/kg; iv; Female; F344
Rat [35] = test: concentration in plasma after dosing; details: 2 h; dosed: Bis 2-Chloroethoxy Methane; 20 mg/kg; iv; Female; F344
Rat [36] = test: concentration in plasma after dosing; details: 10 min; dosed: Di-n-butyl phthalate; 20 mg/kg; iv; Male; Sprague-Dawley
Rat [37] = test: concentration in plasma after dosing; details: 5 min; dosed: Di-n-butyl phthalate; 100 mg/kg; oral; Male; Sprague-Dawley

Work on O=C(O)C(F)(F)C(F)(F)C(F)(F)C(F)(F)C(F)(F)C(F)(F)C(F)(F)C(F)(F)C(F)(F)F [Perfluorodecanoic acid] yielded a concentration in liver (Rat [1]) of 43600 ng/g, a concentration in plasma (Rat [2]; 24 h) of 5580 ng/mL and a concentration in plasma (Rat [2]; 1848 h) of 884 ng/mL. For the same molecule, the concentration in kidney (Rat [3]) was 16700 ng/g, the concentration in kidney (Rat [4]) was 10600 ng/g and the concentration in kidney (Rat [5]) was 11800 ng/g.
O=C(O)C(Cl)Cl [dichloroacetic acid] gave a concentration in plasma (Rat [6]; 20 min) of 15900 ng/mL, a concentration in plasma (Rat [6]; 8 h) of 25000 ng/mL and a concentration in plasma (Rat [7]) of 2320 ng/mL.
For CCC1(c2ccccc2)C(=O)NC(=O)NC1=O [Phenobarbital], the concentration in plasma (Rat [8]) was 5830 ng/mL and the concentration in plasma (Rat [9]) was 1000 ng/mL.
Cc1cccc(Nc2cc(Cl)nc(SCC(=O)O)n2)c1C gave a concentration in plasma (Rat [10]; 0.5 h) of 1670 ng/mL, a concentration in plasma (Rat [10]; 5 h) of 507 ng/mL and a concentration in plasma (Rat [11]) of 266 ng/mL. The concentration in plasma (Rat [12]) was 828 ng/mL.
For OCCC(F)(F)C(F)(F)C(F)(F)C(F)(F)C(F)(F)C(F)(F)C(F)(F)C(F)(F)F [Fluorotelomer alcohol 8+2], the concentration in plasma (Rat [13]; 5 min) was 23200 ng/mL, the concentration in plasma (Rat [13]; 3 h) was 505 ng/mL and the concentration in plasma (Rat [14]; 0.25 h) was 1430 ng/mL. It also gave a concentration in plasma (Rat [14]; 24 h) of 10.2 ng/mL, a concentration in plasma (Rat [15]; 0.25 h) of 1710 ng/mL and a concentration in plasma (Rat [15]; 24 h) of 3.59 ng/mL.
In the case of O=C(O)CSCC(=O)O [Thiodiglycolic Acid], the concentration in liver (Rat [16]) is reported as 29000 ng/g, the concentration in liver (Rat [17]) is reported as 3470 ng/g and the concentration in liver (Rat [18]) is reported as 7350 ng/g. The concentration in heart (Rat [19]) was 2320 ng/g, the concentration in liver (Rat [20]) was 174000 ng/g and the concentration in heart (Rat [21]) was 272 ng/g. The concentration in plasma (Rat [22]) was 25400 ng/mL, the concentration in plasma (Rat [23]) was 1580 ng/mL and the concentration in plasma (Rat [24]) was 16300 ng/mL. It also gave a concentration in plasma (Rat [25]) of 790 ng/mL.
For ClCCOCOCCCl [Bis 2-Chloroethoxy Methane], the concentration in liver (Rat [26]) was 2500 ng/g, the concentration in heart (Rat [27]) was 33 ng/g and the concentration in liver (Rat [28]) was 33.4 ng/g. It also gave a concentration in thymus (Rat [29]) of 25400 ng/g, a concentration in plasma (Rat [30]) of 1940 ng/mL and a concentration in plasma (Rat [31]; 10 min) of 22300 ng/mL. The concentration in plasma (Rat [31]; 5.333 h) was 72.8 ng/mL, the concentration in plasma (Rat [32]; 20 min) was 8380 ng/mL and the concentration in plasma (Rat [32]; 6.667 h) was 25.4 ng/mL. It also gave a concentration in plasma (Rat [33]; 1 h) of 4820 ng/mL, a concentration in plasma (Rat [33]; 9.667 h) of 15.4 ng/mL and a concentration in plasma (Rat [34]) of 1410 ng/mL. For the same molecule, the concentration in plasma (Rat [35]) was 188 ng/mL.
CCCCOC(=O)c1ccccc1C(=O)O [Mono-n-butyl phthalate] showed a concentration in plasma (Rat [36]) of 31200 ng/mL and a concentration in plasma (Rat [37]) of 1430 ng/mL.
